We go through 29 molecules from patent US9174980B2, “Heterocyclic compounds as inhibitors of leukotriene production” (Boehringer Ingelheim International GmbH, priority 2012, dated 2015).

By IC50 is commonly meant the concentration that gives 50% inhibition.

In experiment [1] the target is T1, recombinant human FLAP protein (Homo sapiens, UniProt P20292).
T1 construct: made in house; host or cells: Sf9 insect cells (membrane fraction, 100,000 x g pellet)
T1 sequence (P20292 1-161): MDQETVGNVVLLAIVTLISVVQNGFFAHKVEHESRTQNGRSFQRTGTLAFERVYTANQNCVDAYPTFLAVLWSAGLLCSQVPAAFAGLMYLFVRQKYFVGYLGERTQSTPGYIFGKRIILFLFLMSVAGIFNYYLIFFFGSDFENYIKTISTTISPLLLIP
Briefly: FLAP binding assay (Scintillation Proximity Assay, displacement of [125I]L-691,831). To be noted: read-out: Human FLAP SPA Binding (IC50 nM). The procedure, abridged:
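Scintillation proximity displacement format: 0.08 nM iodinated MK-591 analog [125I]L-691,831 competes with test compound for human FLAP in sf9 insect-cell membranes (5 μg/well, WGA beads), 2 h with shaking, pH 7.5 Tris buffer. 10 μM cold L-691,831 defines non-specific binding.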
(In general: In a scintillation proximity assay essentially only radioactivity close to the scintillant gives light.)

For experiment [2], the system named is synthesis of LTB4 in human whole blood. Briefly: Human whole blood assay (calcimycin-stimulated LTB4 synthesis). To be noted: Homo sapiens; read-out: Human Whole Blood LTB4 Assay for FLAP (IC50 nM). It is filed as cell-based. The procedure, abridged:
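Readout: plasma LTB4 by antibody-based HTRF. Compound added to heparinized human whole blood, 15 min 37° C; calcimycin 20 μM final (PBS pH 7.4), 30 min 37° C; spun 1500×g 5 min, plasma taken.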

Each structure is given as a SMILES string.

For `CC(C)(O)Cn1cc(-c2coc([C@](C)(c3ccc(-c4cnc(N)nc4)nc3)C3CC3)n2)cn1` [Example 211, 1-[4-(2-{(S)-1-[6-(2-Amino-pyrimidin-5-yl)-pyridin-3-yl]-1-cyclopropyl-ethyl}-oxazol-4-yl)-pyrazol-1-yl]-2-methyl-propan-2-ol], the IC50 in experiment [1] was more than 2000 nM; in experiment [2], more than 5000 nM.

In the case of `COC(=O)c1[nH]cc(Br)c1C1(c2ccc(-c3cnc(N)nc3)cc2)CCC1` [Example 174, methyl 3-{1-[4-(2-aminopyrimidin-5-yl)phenyl]cyclobutyl}-4-bromo-1H-pyrrole-2-carboxylate], the IC50 in experiment [1] was 17 nM; in experiment [2], 650 nM.

For the molecule `Cn1cc(-c2c(C3(c4ccc(-c5cnc(N)nc5)cc4)CCC3)c3ccccc3n2C(=O)OC(C)(C)C)cn1` [Example 188, tert-butyl 3-{1-[4-(2-aminopyrimidin-5-yl)phenyl]cyclobutyl}-2-(1-methyl-1H-pyrazol-4-yl)-1H-indole-1-carboxylate], the IC50 in experiment [1] is 270 nM; in experiment [2], more than 5000 nM.

Take `CC(C)C(C)(c1ccc(-c2ccc(N)nc2)cc1)c1c[nH]c2cc(-c3nnc(N)o3)ccc12` (stereo not shown) [Example 71, 5-(4-{2-[6-(5-amino-1,3,4-oxadiazol-2-yl)-1H-indol-3-yl]-3-methylbutan-2-yl}phenyl)pyridin-2-amine]: the figures for the IC50 in experiment [1] and in experiment [2] were 0.72 nM and 1900 nM, respectively.

As for `Cn1cc(-c2cc([C@@](C)(c3ccc(-c4cnc(N)nc4)nc3)C3CC3)no2)cn1` [Example 200], the values for the IC50 in experiment [1] and in experiment [2] were 140 nM and 450 nM, respectively.

Turning to `Cn1cc(-c2cc(C(C)(c3ccc(-c4cnc(N)nc4)nc3)C3CC3)no2)cn1` (stereo not shown) [Example 199, 5-(5-{1-Cyclopropyl-1-[5-(1-methyl-1H-pyrazol-4-yl)-isoxazol-3-yl]-ethyl}-pyridin-2-yl)-pyrimidin-2-ylamine], the IC50 in experiment [1] was found to be 230 nM; in experiment [2], 590 nM.

As for `Cc1ccc(-c2cnc(C3(c4ccc(-c5cnc(N)nc5)cc4)CCC3)[nH]2)cn1` [Example 14, 5-(4-{1-[5-(6-methylpyridin-3-yl)-1H-imidazol-2-yl]cyclobutyl}phenyl)pyrimidin-2-amine], the results for the IC50 in experiment [1] and in experiment [2] were 30 nM and more than 5000 nM, respectively.

On to `CN(CCO)C(=O)c1cccc2c(C3(c4ccc(-c5cnc(N)nc5)cc4)CCC3)c[nH]c12` [Example 115, 3-{1-[4-(2-aminopyrimidin-5-yl)phenyl]cyclobutyl}-N-(2-hydroxyethyl)-N-methyl-1H-indole-7-carboxamide], for which the figures for the IC50 in experiment [1] and in experiment [2] were 2.6 nM and 1100 nM, respectively.

On to `Nc1ncc(-c2ccc(C3(c4c[nH]c5cc(C(=O)NC6CCS(=O)(=O)C6)ccc45)CCC3)cc2)cn1` (stereo not shown) [Example 1, 3-{1-[4-(2-aminopyrimidin-5-yl)phenyl]cyclobutyl}-N-(1,1-dioxidotetrahydrothiophen-3-yl)-1H-indole-6-carboxamide], for which the values for the IC50 in experiment [1] and in experiment [2] were 1.3 nM and 1300 nM, respectively.

As for `Nc1ncc(-c2ccc(C3(c4c[nH]c5ccccc45)CCOCC3)cc2)cn1` [Example 33, 5-{4-[4-(1H-indol-3-yl)tetrahydro-2H-pyran-4-yl]phenyl}pyrimidin-2-amine], the IC50 in experiment [1] was 290 nM; in experiment [2], more than 5000 nM.

On to `COCCNC(=O)c1cccc2c(C3(c4ccc(-c5cnc(N)nc5)cc4)CCC3)c[nH]c12` [Example 159], for which the IC50 amounted to 1.9 nM in experiment [1] and 43 nM in experiment [2].

Take `Nc1ncc(-c2ccc(C3(c4c[nH]c5c(C(=O)O)cccc45)CCC3)cc2)cn1` [Example 150, 3-{1-[4-(2-aminopyrimidin-5-yl)phenyl]cyclobutyl}-1H-indole-7-carboxylic acid]: the values for the IC50 in experiment [1] and in experiment [2] were 1.5 nM and more than 5000 nM, respectively.

`Cn1cc(C2(c3ccc(-c4cnc(N)nc4)cc3)CCC2)c2cccnc21` [Example 95, 5-{4-[1-(1-methyl-1H-pyrrolo[2,3-b]pyridin-3-yl)cyclobutyl]phenyl}pyrimidin-2-amine]: the IC50 in experiment [1] stood at 5 nM; in experiment [2] it was 960 nM.

`CNC(=O)c1cccc2c(C3(c4ccc(-c5cnc(N)nc5)cc4)CCC3)c[nH]c12` [Example 6, 3-[1-[4-(2-aminopyrimidin-5-yl)phenyl]cyclobutyl]-N-methyl-1H-indole-7-carboxamide]: the IC50 in experiment [1] worked out at 1.5 nM; in experiment [2], 29 nM.

`CC(C)C(C)(c1ccc(-c2cnc(N)nc2)cc1)c1c[nH]c2c(F)cccc12` (stereo not shown) [Example 59, 5-{4-[2-(7-fluoro-1H-indol-3-yl)-3-methylbutan-2-yl]phenyl}pyrimidin-2-amine]: the IC50 in experiment [1] amounted to 0.65 nM; in experiment [2], 330 nM.

Regarding `CC(C)C(C)(c1ccc(-c2cnc(N)nc2)cc1)c1c[nH]c2cc(C(=O)N3CCOCC3)ccc12` (stereo not shown) [Example 77, (3-{2-[4-(2-aminopyrimidin-5-yl)phenyl]-3-methylbutan-2-yl}-1H-indol-6-yl)(morpholin-4-yl)methanone], the values for the IC50 in experiment [1] and in experiment [2] were 1.7 nM and 640 nM, respectively.

Consider `Cc1cc(CN(C)C(=O)c2cccc3c(C4(c5ccc(-c6cnc(N)nc6)cc5)CCC4)c[nH]c23)[nH]n1` [Example 13, 3-{1-[4-(2-aminopyrimidin-5-yl)phenyl]cyclobutyl}-N-methyl-N-[(3-methyl-1H-pyrazol-5-yl)methyl]-1H-indole-7-carboxamide], for which the IC50 in experiment [1] was 1.4 nM; in experiment [2], 320 nM.

In the case of `COc1cncc(-c2ccc(C(c3ncc(-c4cnc(N)nc4)s3)C(C)C)cc2)c1` (stereo not shown) [Example 100], the IC50 in experiment [1] came out at 18 nM; in experiment [2], 2100 nM.

`CCc1noc(CN(CC)C(=O)c2cccc3c(C4(c5ccc(-c6cnc(N)nc6)cc5)CCC4)c[nH]c23)n1` [Example 12, 3-{1-[4-(2-aminopyrimidin-5-yl)phenyl]cyclobutyl}-N-ethyl-N-[(3-ethyl-1,2,4-oxadiazol-5-yl)methyl]-1H-indole-7-carboxamide]: the figures for the IC50 in experiment [1] and in experiment [2] were 2.7 nM and 680 nM, respectively.

`CN(C)C(=O)Cn1cc(-c2cnc(C3(c4ccc(-c5cnc(N)nc5)cc4)CCC3)s2)cn1` [Example 180, 2-[4-(2-{1-[4-(2-aminopyrimidin-5-yl)phenyl]cyclobutyl}-1,3-thiazol-5-yl)-1H-pyrazol-1-yl]-N,N-dimethylacetamide]: the IC50 in experiment [1] amounted to 8.9 nM; in experiment [2], 270 nM.

On to `Nc1ncc(-c2ccc(C3(c4cccn4S(=O)(=O)c4ccccc4)CCC3)cc2)cn1` [Example 169, 5-(4-{1-[1-(phenylsulfonyl)-1H-pyrrol-2-yl]cyclobutyl}phenyl)pyrimidin-2-amine], for which the IC50 was found to be 110 nM in experiment [1] and 2000 nM in experiment [2].

`Nc1ncc(-c2ccc(C3(c4cn(CC(=O)N5CC(O)C5)c5ccccc45)CCC3)cc2)cn1` [Example 133, 2-(3-{1-[4-(2-aminopyrimidin-5-yl)phenyl]cyclobutyl}-1H-indol-1-yl)-1-(3-hydroxyazetidin-1-yl)ethanone]: the IC50 in experiment [1] was 7.5 nM; in experiment [2] it was more than 5000 nM.

As to `CC(C)(O)Cn1cc(-c2coc(C(C)(c3ccc(-c4cnc(N)nc4)nc3)C3CC3)n2)cn1` (stereo not shown) [Example 209, 1-[4-(2-{1-[6-(2-Amino-pyrimidin-5-yl)-pyridin-3-yl]-1-cyclopropyl-ethyl}-oxazol-4-yl)-pyrazol-1-yl]-2-methyl-propan-2-ol], the results for the IC50 in experiment [1] and in experiment [2] were 300 nM and 560 nM, respectively.

Turning to `CC(C)C(C)(c1ccc(-c2cnc(N)nc2)cc1)c1cn(Cc2ccc(Cl)cc2)c2ncccc12` (stereo not shown) [Example 34, 5-(4-{2-[1-(4-chlorobenzyl)-1H-pyrrolo[2,3-b]pyridin-3-yl]-3-methylbutan-2-yl}phenyl)pyrimidin-2-amine], the IC50 in experiment [1] was 3.4 nM; in experiment [2], 460 nM.

Regarding `Cn1cc(-c2coc(C(C)(c3ccc(-c4cnc(N)nc4)nc3)C3CC3)n2)cn1` (stereo not shown) [Example 206, 5-(5-{1-Cyclopropyl-1-[4-(1-methyl-1H-pyrazol-4-yl)-oxazol-2-yl]-ethyl}-pyridin-2-yl)-pyrimidin-2-ylamine], the IC50 in experiment [1] turned out to be 180 nM; in experiment [2] it was 930 nM.

Consider `Nc1ncc(-c2ccc(C3(c4c[nH]c5ccc(F)cc45)CCC3)cc2)cn1` [Example 83, 5-{4-[1-(5-fluoro-1H-indol-3-yl)cyclobutyl]phenyl}pyrimidin-2-amine], for which the concentration for half-maximal inhibition (IC50) in experiment [1] was found to be 5 nM; in experiment [2] it was 460 nM.

As for `CC(C)C(C)(c1ccc(-c2cnc(N)nc2)cc1)c1nc2ccccc2[nH]1` (stereo not shown) [Example 104, 5-{4-[2-(1H-benzimidazol-2-yl)-3-methylbutan-2-yl]phenyl}pyrimidin-2-amine], the IC50 in experiment [1] was found to be 8.6 nM; in experiment [2] it was 1900 nM.

As to `CC(C)C(C)(c1ccc(-c2cnc(N)nc2)cc1)c1c[nH]c2cc(C(=O)N3CC(O)C3)ccc12` (stereo not shown) [Example 78, (3-{2-[4-(2-aminopyrimidin-5-yl)phenyl]-3-methylbutan-2-yl}-1H-indol-6-yl)(3-hydroxyazetidin-1-yl)methanone], the IC50 in experiment [1] is 1.6 nM; in experiment [2] it was more than 5000 nM.

In the case of `CC(C)C(C)(c1ccc(-c2cnc(N)nc2)cc1)c1c[nH]c2cc(-c3nnc(N)o3)ccc12` (stereo not shown) [Example 65, 5-[3-[1-[4-(2-aminopyrimidin-5-yl)phenyl]-1,2-dimethyl-propyl]-1H-indol-6-yl]-1,3,4-oxadiazol-2-amine], the IC50 in experiment [1] came to 0.57 nM; in experiment [2], 1800 nM.
